In test [1] the test system is E. faecium ATCC 35667. Kind of test: MIC broth microdilution (NCCLS). The test is classed as cell-based, Enterococcus faecium. Here is the method:
(§1) Minimal Inhibitory Concentration (MIC) Determination. Bacteria (primary strain panel, TABLE 1). Susceptibility tests were performed following the recommendations from the National Committee for Clinical Standards (NCCLS). The MICs were determined by a broth microdilution technique using a final volume of 100 μl of cation-adjusted Mueller Hinton Broth (MHBCA) and a bacterial inoculum of 10^5-10^6 Colony Forming Units (CFU)/ml. The inocula were verified and precisely determined by applying 10-μl drops of 10-fold dilutions onto Triptic Soy Agar plates. The CFU were counted after an incubation of 24 h at 35° C. Any experiment showing an inoculum that was more or less than 10^5-10^6 CFU/ml was rejected. Control antibiotics and test compounds were prepared at a concentration equivalent to 2-fold the highest desired final concentration. Compounds were then diluted directly in the 96-well microtiter plates by serial 2-fold dilutions using a multichannel pipette. Microtiter plates were incubated during 24 h at 35° C. and growth was recorded by using a microtiterplate reader at 650 nm as well as by visual observation. The MIC was defined as the lowest concentration of compound yielding no visible growth. […] Fastidious bacteria. The medium used for Listeria monocytogenes, Neisseria meningitidis, and Campylobacter jejuni was MHBCA containing 2% laked horse blood. The medium used for Haemophilus influenzae and Branhamella (Moraxella) catarrhalis was HTM as recommended by the NCCLS. Cultures of these fastidious bacteria were incubated at 35° C. in a 5% CO2 atmosphere. […] The medium used for Bacteroides fragilis was Wilkins Chalgren broth and growth was allowed under an anaerobic atmosphere at 35° C. for 48 hours.
Background: In broth dilution the organism is exposed to a series of concentrations in liquid medium.

Test [2] deals with S. aureus ATCC 29213. Kind of test: MIC broth microdilution (NCCLS). The test is classed as cell-based, Staphylococcus aureus. The following applies: Staphylococcus aureus, ATCC29213; S. aureus ATCC 29213; read-out: MIC. Here is the method: as §1
Test [3] concerns E. faecalis ATCC 29212. Kind of test: MIC broth microdilution (NCCLS). The test is classed as cell-based, Enterococcus faecalis. The following applies: Enterococcus faecalis, ATCC29212; E. faecalis ATCC 29212; read-out: MIC. As to the method:
as §1

For test [4], the system named is S. epidermidis ATCC 12228. Kind of test: MIC broth microdilution (NCCLS). The test is classed as cell-based, Staphylococcus epidermidis. The following applies: Staphylococcus epidermidis, ATCC12228; S. epidermidis ATCC 12228; read-out: MIC. As to the method:
as §1

The subject of test [5] is S. saprophyticus ATCC 15305. Kind of test: MIC broth microdilution (NCCLS). The test is classed as cell-based, Staphylococcus saprophyticus. The following applies: Staphylococcus saprophyticus, ATCC15305; S. saprophyticus ATCC 15305; read-out: MIC. Here is the method:
as §1

Test [6] deals with E. coli ATCC 25922. Kind of test: MIC broth microdilution (NCCLS). To be noted: Escherichia coli, ATCC25922, E. coli ATCC 25922 (Reference); read-out: MIC. It counts as cell-based, Escherichia coli. As to the method:
as §1

Test [7] has as its system S. aureus MRSA COL. Kind of test: MIC broth microdilution (NCCLS). The following applies: Staphylococcus aureus, MRSA, S. aureus MRSA COL; read-out: MIC. It counts as cell-based, Staphylococcus aureus. As to the method: as §1, with “hours. […]” for “hours.”
Test [8] relates to B. catarrhalis ATCC 8176. Kind of test: Minimal Bactericidal Concentration (MBC). It counts as cell-based, Branhamella (Moraxella) catarrhalis. The following applies: Moraxella catarrhalis, ATCC8176, 99.9% killing. Here is the method:
(§2) Minimal Bactericidal Concentration (MBC). After the microtiter plates were read for the determination of the MIC, a 10-μl sample of each clear well (at least 5 wells without visible growth) was applied onto TSA plates for viable counts determination.
(§3) Petri dishes were incubated at 35° C. for exactly 24 h and bacterial colonies were counted.

Test [9] has as its system B. catarrhalis ATCC 8176. Kind of test: MIC broth microdilution (NCCLS), fastidious bacteria. The test is classed as cell-based, Branhamella (Moraxella) catarrhalis. The following applies: Moraxella catarrhalis, ATCC8176, HTM, 5% CO2. Here is the method:
as §1

In test [10] the test system is H. influenzae ATCC 49766. Kind of test: Minimal Bactericidal Concentration (MBC). It counts as cell-based. The following applies: Haemophilus influenzae, ATCC49766, 99.9% killing. Here is the method:
as §2, §3

Test [11] relates to H. influenzae ATCC 49766. Kind of test: MIC broth microdilution (NCCLS), fastidious bacteria. The test is classed as cell-based. To be noted: Haemophilus influenzae, ATCC49766, HTM, 5% CO2. As to the method: as §1
Test [12] relates to H. influenzae ATCC 49247. The description is as above. The following applies: Haemophilus influenzae, ATCC49247, HTM, 5% CO2. The test is classed as cell-based. Here is the method: as §1
For test [13], the system named is E. faecium VanA. Kind of test: MIC broth microdilution, antibiotic resistant strain panel. The test is classed as cell-based. The following applies: Enterococcus faecium; multi-resistant E. faecium VanA; read-out: MIC. Here is the method: as §1
Finally, compounds were also tested against populations of various clinical strains (antibiotic resistant strain panel, TABLE 1).

Test [14] deals with Y. enterocolytica ATCC 23715. Kind of test: MIC broth microdilution (NCCLS). It counts as cell-based, Yersinia enterocolytica. To be noted: Yersinia, ATCC23715, read-out: MIC. As to the method:
as §1

The subject of test [15] is A. baumannii ATCC 19606. Kind of test: MIC broth microdilution (NCCLS). It counts as cell-based, Acinetobacter baumannii. The following applies: Acinetobacter baumannii, ATCC19606, read-out: MIC. As to the method: as §1
In test [16] the test system is S. typhimurium ATCC14028. Kind of test: MIC broth microdilution (NCCLS). It counts as cell-based, Salmonella typhimurium. The following applies: Salmonella enterica. As to the method: as §1
Setting [17] is: Enterococcus faecium, ATCC35667, E. faecium ATCC 35667, read-out: MIC.

Each structure is given as a SMILES string. Values after ≈ are worked out from the molar mass of the structure shown. Where two headings read alike, the source gives them in different places. A value given as a limit tells only on which side of the number the result lay.

As for `CO/N=C(\C(=O)N[C@@H]1C(=O)N2C(C(=O)O)=C(CSc3nc(=O)c(=O)[nH]n3C)CS[C@H]12)c1csc(N)n1` [Ceftriaxone], the MIC in test [1] (setting [17]) was 64 µg/mL (≈ 115 µM); in test [2] it was 2 µg/mL (≈ 3.61 µM); in test [3], 8 µg/mL (≈ 14.4 µM); in [4] it was 1 µg/mL (≈ 1.8 µM); in [5], 8 µg/mL (≈ 14.4 µM); in test [6], 0.03 to 0.06 µg/mL (≈ 0.0541 to 0.108 µM). Also, the MIC in test [7] came to 512 µg/mL (≈ 923 µM).
`CC[C@H]1OC(=O)[C@H](C)[C@@H](O[C@H]2C[C@@](C)(OC)[C@@H](O)[C@H](C)O2)[C@H](C)[C@@H](O[C@@H]2O[C@H](C)C[C@H](N(C)C)[C@H]2O)[C@](C)(OC)C[C@@H](C)C(=O)[C@H](C)[C@@H](O)[C@]1(C)O` [Clarithromycin]: the MBC in [8] was 1 µg/mL (≈ 1.34 µM); in test [10] it was more than 128 µg/mL. Also, the MIC in test [9] was 0.5 µg/mL (≈ 0.668 µM); in test [3], 16 µg/mL (≈ 21.4 µM); in test [11], 128 µg/mL (≈ 171 µM); in [12], 16 µg/mL (≈ 21.4 µM); in test [13], more than 128 µg/mL.
As for `O=C1OCCN1/N=C/c1ccc([N+](=O)[O-])o1` [Furazolidone], the MIC is more than 64 µg/mL in test [1] (E. faecium ATCC 35667); more than 128 µg/mL in [1] (setting [17]); 4 to 16 µg/mL (≈ 17.8 to 71.1 µM) in [2]; 8 to 16 µg/mL (≈ 35.5 to 71.1 µM) in [3]; 2 to 4 µg/mL (≈ 8.88 to 17.8 µM) in test [4]; 64 µg/mL (≈ 284 µM) in test [13]. Further, the MIC is more than 16 µg/mL in [14]; 32 µg/mL (≈ 142 µM) in test [15]; 2 µg/mL (≈ 8.88 µM) in test [5]; 1 to 2 µg/mL (≈ 4.44 to 8.88 µM) in [6]; 8 µg/mL (≈ 35.5 µM) in test [7]; 2 µg/mL (≈ 8.88 µM) in test [16].

Values taken from US7410974B2, “Halogenated Quinazolinyl nitrofurans as antibacterial agents” (Ulysses Pharmaceutical Products, Inc., priority 2003, dated 2008).
